Results on two compounds are retold here after patent publication US6852735B1, “Siastatin B derivatives having a glycosidase inhibitory activity and processes for producing the same” (Zaidan Hojin Biseibutsu Kagaku Kenkyu Kai, priority 1998, dated 2005).

Where a name gives a salt, the structure may show the parent alone.

Usually melting point stands for the temperature of the solid-liquid transition. For `CC(=O)NC1NCC(CO)C(O)C1O` (stereo not drawn) (as salt: hydrochloride) [Formula (V), 3-decarboxy-4-epi-3-hydroxymethyl-siastain B], the melting point is 201 to 202 °C (dec.).

In turn, `O=C(N[C@H]1NC[C@H](CO)[C@@H](O)[C@@H]1O)C(F)(F)F` (as salt: hydrochloride) [Formula (X), 6-deacetamido-3-decarboxy-4-epi-3-hydroxymethyl-6-trifluoroacetamido-siastain B] displayed a melting point of 88 to 90 °C.
